Data taken from patent US9493537B2, “Compounds with reduced ring size for use in diagnosing and treating melanoma, including metastatic melanoma and methods related to same” (STC.UNM, priority 2009, dated 2016).
One block for each molecule: values may come before it. Positions of bridges follow the written chain, without caps; N, C: chain ends. Non-standard residues stand in square brackets, D forms with d. Residues, ends and D or L forms follow the SMILES beside them. No end group written: not given here. *: point of attachment. DOTA = O=C(O)CN1CCN(CC(=O)O)CCN(CC(=O)*)CCN(CC(=O)O)CC1; Nle = CCCC[C@H](N)C(=O)O

Columns and labels:
[1] = In vitro serum stability in mouse serum; assay type: in vitro ADME; conditions: 37° C., 24 h
Description: After the incubation, 10 μL of 0.5% EDTA aqueous solution was added into the reaction vial to scavenge potential unbound ^111In^3+ ions. The radiolabeled peptide was purified to single species by Waters RP-HPLC (Milford, Mass.) on a Grace Vydac C-18 reverse phase analytical column (Deerfield, Ill.) using a 20-minute gradient of 18-28% acetonitrile in 20 mM HCl aqueous solution with a flow rate of 1.0 mL/min. Purified peptide sample was purged with N2 gas for 20 minutes to remove the acetonitrile. The pH of final solution was adjusted to 7.4 with 0.1 N NaOH and sterile normal saline for animal studies.
Briefly, 50 μL of ^111InCl3 (37-74 MBq in 0.05 M HCl aqueous solution), 10 μL of 1 mg/mL peptide aqueous solution and 400 μL of 0.5 M NH4OAc (pH 4.5) were added into a reaction vial and incubated at 75° C. for 45 mins. After the incubation, 10 μL of 0.5% EDTA (ethylenediaminetetraacetic acid) aqueous solution was added into the reaction vial to scavenge potential unbound ^111In^3+ ions. The radiolabeled complexes were purified to single species by Waters RP-HPLC (Milford, Mass.) on a Grace Vydac C-18 reverse phase analytical column (Deerfield, Ill.) using the following gradient at a 1 mL/min flowrate. The mobile phase consisted of solvent A (20 mM HCl aqueous solution) and solvent B (100% CH3CN). The gradient was initiated and kept at 82:18 A/B for 3 mins followed by a linear gradient of 82:18 A/B to 72:28 A/B over 20 mins. Then, the gradient was changed from 72:28 A/B to 10:90 A/B over 3 mins followed by an additional 5 mins at 10:90 A/B. Thereafter, the gradient was changed from 10:90 AB to 82:18 AB over 3 mins. Each purified peptide sample was purged with N2 gas for 20 mins to remove the acetonitrile. The pH of the final solution was adjusted to 7.4 with 0.1 N NaOH and sterile saline for animal studies. In vitro serum stability of ^111In-DOTA-GGNle-CycMSHhex and ^111In-DOTA-GENle-CycMSHhex were determined by incubation in mouse serum at 37° C. for 24 h and monitored for degradation by RP-HPLC.

B16/F1 melanoma [2] = assay: Biodistribution in B16/F1 melanoma-bearing C57 mice; assay type: in vivo; conditions: for tumor uptake blocked by NDP-MSH co-injection: 10 μg (6.07 nmol) NDP-MSH
Description: (§1) All the animal studies were conducted in compliance with Institutional Animal Care and Use Committee approval. The mice were housed five animals per cage in sterile micro-isolator cages in a temperature- and humidity-controlled room with a 12-h light/12-h dark schedule. […] C57 mice were subcutaneously inoculated on the right flank with 1×10^6 B16/F1 cells. The weight of tumors reached approximately 0.2 g 10 days post cell inoculation. […] Groups of 5 mice were sacrificed at 0.5, 2, 4 and 24 h post-injection, and tumors and organs of interest were harvested, weighed and counted. Blood values were taken as 6.5% of the whole-body weight. […] The mice were sacrificed at 2 h post-injection. The tumor and organs of interest were harvested, weighed and counted.
(§2) All animal studies were conducted in compliance with Institutional Animal Care and Use Committee approval. The pharmacokinetics of ^111In-DOTA-GGNle-CycMSHhex and ^111In-DOTA-GENle-CycMSHhex were determined in B16/F1 melanoma-bearing C57 female mice (Harlan, Indianapolis, Ind.). The C57 mice were subcutaneously inoculated with 1×10^6 B16/F1 cells on the right flank for each mouse to generate B16/F1 melanomas. Ten days post inoculation, the tumor weights reached approximately 0.2 g. Each melanoma-bearing mouse was injected with 0.037 MBq of ^111In-DOTA-GGNle-CycMSHhex or ^111In-DOTA-GENle-CycMSHhex via the tail vein. Groups of 5 mice were sacrificed at 0.5, 2, 4 and 24 h post-injection, and tumors and organs of interest were harvested, weighed and counted. Blood values were taken as 6.5% of the whole-body weight. The specificities of the tumor uptake of ^111In-DOTA-GGNle-CycMSHhex and ^111In-DOTA-GENle-CycMSHhex were determined by co-injecting 10 μg (6.07 nmol) of unlabeled NDP-MSH which is a linear α-MSH peptide analogue with picomolar MC1 receptor binding affinity.

MC1 receptor [3] = target: MC1 receptor (Homo sapiens, UniProt Q01726); conditions: references 25, 26; cited from earlier work
Chain of MC1 receptor (Homo sapiens, UniProt Q01726) (Q01726 whole entry): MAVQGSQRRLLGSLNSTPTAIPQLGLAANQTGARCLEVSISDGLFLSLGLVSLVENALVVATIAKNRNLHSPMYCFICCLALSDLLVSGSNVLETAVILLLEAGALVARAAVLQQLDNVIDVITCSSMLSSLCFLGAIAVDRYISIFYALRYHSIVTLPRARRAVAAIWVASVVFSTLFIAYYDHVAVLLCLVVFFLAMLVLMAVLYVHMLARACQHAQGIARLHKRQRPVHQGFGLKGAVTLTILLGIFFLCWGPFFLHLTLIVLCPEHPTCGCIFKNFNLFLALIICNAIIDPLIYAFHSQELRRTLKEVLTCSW

MC1 receptor [4] = target: T1, MC1 receptor (Mus musculus, UniProt Q01727); conditions: cited from earlier work
T1 sequence (Q01727 whole entry): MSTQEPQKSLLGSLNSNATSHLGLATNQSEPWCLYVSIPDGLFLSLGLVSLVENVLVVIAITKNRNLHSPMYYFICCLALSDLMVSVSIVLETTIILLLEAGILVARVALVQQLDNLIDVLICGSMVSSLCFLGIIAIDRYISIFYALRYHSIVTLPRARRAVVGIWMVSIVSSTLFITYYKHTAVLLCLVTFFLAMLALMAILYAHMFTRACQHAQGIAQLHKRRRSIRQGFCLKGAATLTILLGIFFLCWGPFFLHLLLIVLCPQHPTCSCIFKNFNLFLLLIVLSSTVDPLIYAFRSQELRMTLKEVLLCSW

[5] = Metabolites in urine and melanoma by RP-HPLC; assay type: in vivo, C57 mice; conditions: 2 h post-injection
Description: The mouse used for the imaging study (2 h post-injection) described above was euthanized and the urine was collected for identifying the metabolites. The urinary sample was centrifuged at 16,000 g for 5 min prior to the HPLC analysis. The radioactive metabolite in the urine was analyzed by injecting aliquots of urine into the HPLC. A 20-minute gradient of 18-28% acetonitrile/20 mM HCl was used for the urine analysis.
Both melanoma and urine were collected from the mouse used for SPECT/CT imaging to analyze the metabolites of ^111In-DOTA-GGNle-CycMSHhex in melanoma and urine. The tumor was homogenized by a VWR homogenizer for 5 mins. Equal volume of ethanol was added into the tumor sample. The tumor sample was vortexed and then centrifuged at 16,000 g for 5 mins. The supernatant was transferred into a glass test tube and purged with N2 gas for 20 mins to remove the ethanol. Aliquots of the supernatant were injected into HPLC. The urinary sample was directly centrifuged at 16,000 g for 5 mins prior to the HPLC analysis. Thereafter, aliquots of the urine were injected into HPLC. The HPLC gradient described above was used for the analyses of metabolites.

[6] = Biodistribution in B16/F1 melanoma-bearing C57 mice; assay type: in vivo; conditions: female, C57, mouse, iv, 0.037 MBq, total radioactivity; for tissue to tissue ratio at 4 h: 4 h post-injection
Description: as §1, §2

B16/F1 melanoma [7] = conditions: references 19, 20; cited from earlier work
B16/F1 melanoma [8] = conditions: mouse, in vivo; cited from earlier work
MC1 receptor [9] = target: T1, MC1 receptor; assay: In vitro competitive binding assay with ^125I-Tyr^2-NDP-MSH in B16/F1 melanoma cells; parameters: host or cells: B16/F1 murine melanoma cells; species or system murine
Description: B16/F1 cells were harvested and seeded into a 24-well cell culture plate (5×10^5 cells/well) and incubated at 37° C. overnight. […] The reaction medium was aspirated after the incubation. The cells were rinsed twice with 0.5 mL of ice-cold pH 7.4, 0.2% BSA/0.01 M phosphate buffered saline (PBS) and lysed in 0.5 mL of 1 N NaOH for 5 minutes. The activities associated with cells were measured in a Wallac 1480 automated gamma counter (PerkinElmer, N.J.). The IC50 value of the peptide was calculated using Prism software (GraphPad Software, La Jolla, Calif.).
B16/F1 cells in 24-well cell culture plates (5×10^5 cells/well) were incubated at room temperature (25° C.) for 2 h with approximately 60,000 cpm of ^125I-Tyr^2-NDP-MSH in the presence of 10^−12 to 10^−5 M of each peptide in 0.3 mL of binding medium {Dulbecco's Modified Eagle's Medium with 25 mM N-(2-hydroxyethyl)-piperazine-N′-(2-ethanesulfonic acid), pH 7.4, 0.2% bovine serum albumin (BSA), 0.3 mM 1,10-phenathroline}. The medium was aspirated after the incubation. […] The activities associated with cells were measured in a Wallac 1480 automated gamma counter (PerkinElmer, Waltham, Mass.). The IC50 value of each peptide was calculated using Prism software (GraphPad Software, La Jolla, Calif.).

Molecule: Ac-Nle-c[Asp-His-DPhe-Arg-Trp-Lys(CONH2)] [MT-II]
MC1 receptor binding affinity compared with the native α-MSH peptide (MC1 receptor [3]): higher
MC1 receptor dissociation rate compared with the native α-MSH peptide (MC1 receptor [3]): slower

Molecule: [Nle^4, D-Phe^7]-α-MSH [NDP-MSH]
affinity for the MC1 receptor (MC1 receptor [4]): picomolar

Molecule: {DOTA}-GEK[Nle]EH[dF]RWGRPVD (lactam 3-14) [^111In-DOTA-GlyGlu-CycMSH, reference compound]
visualization of flank primary and pulmonary metastatic melanoma lesions by SPECT/CT (B16/F1 melanoma [7]): clearly visualized
tumor radioactivity at 2 h remaining in tumors at 24 h (B16/F1 melanoma [8]): 22.8%

The next lines start with the values.

serum stability by RP-HPLC [1]: stable
tumor uptake blocked by NDP-MSH co-injection (B16/F1 melanoma [2]; 2 h post-injection): 95.6%
Kidneys uptake (B16/F1 melanoma [2]; 0.5 h post-injection): 9.06±2.20 % ID/g
Tumor/Skin uptake ratio (B16/F1 melanoma [2]; 0.5 h post-injection): 7.21
Kidneys uptake (B16/F1 melanoma [2]; 2 h post-injection): 5.54±0.63 % ID/g
Tumor/Skin uptake ratio (B16/F1 melanoma [2]; 2 h post-injection): 24.30
Tumor/Skin uptake ratio (B16/F1 melanoma [2]; 4 h post-injection): 44.17
Tumor/Skin uptake ratio (B16/F1 melanoma [2]; 24 h post-injection): 27.50
Molecule: CCCC[C@H](NC(=O)[C@H](CCC(=O)O)NC(=O)CNC(=O)CN1CCN(CC(=O)O)CCN(CC(=O)O)CCN(CC(=O)O)CC1)C(=O)N[C@H]1CC(=O)NCCCC[C@@H](C(N)=O)NC(=O)[C@H](Cc2c[nH]c3ccccc23)NC(=O)[C@H](CCCNC(=N)N)NC(=O)[C@@H](Cc2ccccc2)NC(=O)[C@H](Cc2c[nH]cn2)NC1=O [^111In-DOTA-GENle-CycMSHhex, metal not drawn] ({DOTA}-GE[Nle]DH[dF]RWK-NH2; lactam 4-9)

melanoma metabolites by HPLC ([5]; tumor): remained intact
urinary metabolites by HPLC ([5]; urine): remained intact
serum stability by RP-HPLC [1]: stable
tissue uptake at 2 h ([6]; liver, 2 h post-injection, read-out: Liver uptake): < 0.61 %ID/g
tissue to tissue ratio at 4 h ([6]; tumor and kidney, tumor/kidney uptake ratio, times that of ^111In-DOTA-Nle-CycMSHhex): 1.61
tissue to tissue ratio at 2 h ([6]; tumor and kidneys, tumor/kidney uptake ratio, times that of ^111In-DOTA-Nle-CycMSHhex, 2 h post-injection): 1.37
tissue to tissue ratio at 4 h ([6]; tumor and liver, tumor/liver uptake ratio, times that of ^111In-DOTA-Nle-CycMSHhex): 3.13
tumor uptake blocked by NDP-MSH co-injection (B16/F1 melanoma [2]; 2 h post-injection): Approximately 98%
Kidneys uptake (B16/F1 melanoma [2]; 0.5 h post-injection): 15.19±2.75 % ID/g
Tumor uptake (B16/F1 melanoma [2]; 0.5 h post-injection): 18.39±2.22 % ID/g
Tumor/Skin uptake ratio (B16/F1 melanoma [2]; 0.5 h post-injection): 8.51
tumor uptake, times that of ^111In-DOTA-GENle-CycMSHhex (B16/F1 melanoma [2]; 0.5 h post-injection): 2 times
Kidneys uptake (B16/F1 melanoma [2]; 2 h post-injection): 6.84±0.92 % ID/g
Tumor uptake (B16/F1 melanoma [2]; 2 h post-injection): 19.05±5.04 % ID/g
Tumor/Skin uptake ratio (B16/F1 melanoma [2]; 2 h post-injection): 70.56
tumor uptake, times that of ^111In-DOTA-GENle-CycMSHhex (B16/F1 melanoma [2]; 2 h post-injection): 2.5 times
Tumor uptake (B16/F1 melanoma [2]; 4 h post-injection): 18.6±3.56 % ID/g
Tumor/Liver uptake ratio (B16/F1 melanoma [2]; 4 h post-injection): 31.0
Tumor/Skin uptake ratio (B16/F1 melanoma [2]; 4 h post-injection): 68.89
tumor uptake, times that of ^111In-DOTA-GENle-CycMSHhex (B16/F1 melanoma [2]; 4 h post-injection): 3 times
Tumor uptake (B16/F1 melanoma [2]; 24 h post-injection): 6.77±0.84 % ID/g
Tumor/Skin uptake ratio (B16/F1 melanoma [2]; 24 h post-injection): 26.04
Molecule: CCCC[C@H](NC(=O)CNC(=O)CNC(=O)CN1CCN(CC(=O)O)CCN(CC(=O)O)CCN(CC(=O)O)CC1)C(=O)N[C@H]1CC(=O)NCCCC[C@@H](C(N)=O)NC(=O)[C@H](Cc2c[nH]c3ccccc23)NC(=O)[C@H](CCCNC(=N)N)NC(=O)[C@@H](Cc2ccccc2)NC(=O)[C@H](Cc2c[nH]cn2)NC1=O [^111In-DOTA-GGNle-CycMSHhex, metal not drawn] ({DOTA}-GG[Nle]DH[dF]RWK-NH2; lactam 4-9)

lower receptor binding affinity than DOTA-GGNle-CycMSHhex and DOTA-GENle-CycMSHhex (MC1 receptor [9]): at least 78 fold
Molecule: CCCC[C@H](NC(=O)CN1CCN(CC(=O)O)CCN(CC(=O)O)CCN(CC(=O)O)CC1)C(=O)NCC(=O)N[C@@H](CCC(=O)O)C(=O)N[C@H]1CC(=O)NCCCC[C@@H](C(N)=O)NC(=O)[C@H](Cc2c[nH]c3ccccc23)NC(=O)[C@H](CCCNC(=N)N)NC(=O)[C@@H](Cc2ccccc2)NC(=O)[C@H](Cc2c[nH]cn2)NC1=O [DOTA-NleGE-CycMSHhex] ({DOTA}-[Nle]GEDH[dF]RWK-NH2; lactam 4-9)
